Patent US7291617B2, “Arylamidine derivative or salt thereof” (Toyama Chemical Co., Ltd., priority 2003, dated 2007)
Counter-ions that a name gives are not always drawn.

Test system: Candida albicans TIMM 1623
Assay: Antifungal action, microbroth dilution growth inhibition
Type: cell-based
Conditions: Candida albicans, TIMM1623, 36 h, read-out: IC50 (50% growth inhibitory concentration)
Experimental: 50% growth inhibitory concentration (IC50) was measured according to the microbroth dilution method, using, as a reference, the antifungal agent sensitivity test method proposed by the subcommittee for the antifungal agent sensitivity test, the Japanese Society for Medical Mycology (Japanese Journal of Medical Mycology, vol. 36, No. 1, pp. 62 to 64, 1995). Synthetic amino acid medium, fungal (SAAMF, manufactured by Nippon Bio-Supp. Center) was used as a medium for measurement of sensitivity. Candida albicans TIMM 1623 was cultured at 30° C. overnight on a Sabouraud agar plate medium (Eiken Chemical Co., Ltd.), and the obtained culture was suspended in a sterilized physiological saline solution. Thereafter, the suspension was diluted with a measurement medium such that the number of cells became 1×10^4 cells/ml, thereby producing an inoculum organism solution. 175 μl of a medium, 5 μl of a test agent (an agent diluted solvent in a growth control well), and 20 μl of the inoculum organism solution were added to a 96-well microplate (flat bottom, manufactured by Sumitomo Bakelite Co., Ltd.), and the mixture was stirred with a mixer. Thereafter, using a well Reader SME3400 (Scinics Co., Ltd.), an initial turbidity at a wavelength of 630 nm was measured. The above mixture was cultured at 35° C., and 36 hours later, a final turbidity was measure in the same manner. For an agent-diluted line, values were obtained by subtracting the initial turbidities from the final turbidities. For a growth control line also, values were obtained by subtracting the initial turbidities from the final turbidities. IC50 was defined as the lowest agent concentration among the test agent concentrations having a turbidity equal to or lower than the 50% value (IC50 calculated value) of a value obtained by subtracting the initial turbidity of a growth control from the final turbidity thereof.

N=C(N)c1ccc(OCCCNC2CCN(CCCOc3ccc(C(=N)N)cc3)CC2)cc1 [Example 58, 4-(3-{[1-(3-{4-[amino(imino)methyl]phenoxy}propyl)-4-piperidinyl]amino}propoxy)benzamidine Hydrochloride] and N=C(N)c1ccc(OCCCNC2CCN(CCCOc3ccc(C(=N)N)cc3)C2)cc1 (stereo not shown) [Example 57, 4-(3-{3-[(3-{4-[amino (imino)methyl]phenoxy}propyl)amino]-1-pyrrolidinyl}propoxy)benzamidine Hydrochloride] are the same in IC50: 0.0313 µg/mL for the first, 0.0313 µg/mL for the second.

N=C(N)c1ccc(OCCCN2CCC(CCOc3ccc(C(=N)N)cc3)CC2)cc1 [Example 56, 4-{2-[1-(3-{4-[amino(imino)methyl]phenoxy}propyl)-4-piperidinyl]ethoxy}benzamidine Hydrochloride] and N=C(N)c1ccc(OCCCN2CCN(CCCOc3ccc(C(=N)N)cc3)CC2)cc1 [Example 40-2, 4-{3-[4-(3-{4-[amino(imino)methyl]phenoxy}propyl)-1-piperazinyl]propoxy}benzamidine hydrochloride] are the same in IC50: 0.0039 µg/mL for the first, 0.0039 µg/mL for the second.

Compared with N=C(N)c1ccc(OCCCNCCNCCCOc2cccc(C(=N)N)c2)cc1 [Example 74, 3-[3-({2-[(3-{4-[amino(imino)methyl]phenoxy}propyl)amino]ethyl}amino)propoxy]benzamidine Hydrochloride], N=C(N)c1ccc(OCCCNCCNCCCOc2ccc(C(=N)N)cc2)cc1 [Example 24, 4-[3-({2-[(3-{4-[amino(imino)methyl]phenoxy}propyl)amino]ethyl}amino)propoxy]benzamidine hydrochloride] is 16-fold lower in IC50: 0.125 µg/mL for the first, 0.0078 µg/mL for the second.

First: CNCCCOc1ccc(C(=N)N)cc1 [Example 2, 4-[3-(methylamino)propoxy]benzamidine Hydrochloride]
Second: N=C(N)c1ccc(OCCCN)cc1 [Example 9-2, 4-(3-aminopropoxy)benzamidine Hydrochloride]
The IC50 of the first is 4-fold higher: 2 µg/mL for the first, 0.5 µg/mL for the second.

Going from N=C(N)c1ccc(OCCCN2CCN(CCCOc3ccc(C(=N)N)cc3F)CC2)c(F)c1 [Example 43, 4-{3-[4-(3-{4-[amino(imino)methyl]-2-fluorophenoxy}propyl)-1-piperazinyl]propoxy}-3-fluorobenzamidine Hydrochloride] to N=C(N)c1ccc(OCCCN2CCN(CCCOc3ccc(C(=N)N)c(F)c3)CC2)cc1F [Example 42, 4-{3-[4-(3-{4-[amino(imino)methyl]-3-fluorophenoxy}propyl)-1-piperazinyl]propoxy}-2-fluorobenzamidine Hydrochloride], the IC50 falls from 0.0313 µg/mL to 0.0156 µg/mL (2-fold).

First: N=C(N)c1ccc(OCCCNCCNCCOc2ccc(C(=N)N)cc2)cc1 [Example 27, 4-[3-({2-[(2-{4-[amino(imino)methyl]phenoxy}ethyl)amino]ethyl}amino)propoxy]benzamidine Hydrochloride]
Second: N=C(N)c1ccc(OCCNCCNCCOc2ccc(C(=N)N)cc2)cc1 [Example 25, 4-[2-({2-[(2-{4-[amino(imino)methyl]phenoxy}ethyl)amino]ethyl}amino)ethoxy]benzamidine Hydrochloride]
The IC50 of the first is 2-fold higher: 0.0313 µg/mL for the first, 0.0156 µg/mL for the second.

Compared with N=C(N)c1ccc(OCCCNCCN)cc1 [Example 10, 4-{3-[(2-aminoethyl)amino]propoxy}benzamidine hydrochloride], N=C(N)c1ccc(OCCCCN)cc1 [Example 5, 4-(4-aminobutoxy)benzamidine hydrochloride] is 4-fold lower in IC50: 1 µg/mL for the first, 0.25 µg/mL for the second.

N=C(N)c1ccc(OCCCNCCCCCC(=O)O)cc1 [Example 3-2, 6-[(3-{4-[amino(imino)methyl]phenoxy}propyl)amino]hexanoic Acid Hydrochloride] and N=C(N)c1ccc(OCCCCCN)cc1 [Example 7, 4-[(5-aminopentyl)oxy]benzamidine Hydrochloride] are the same in IC50: 0.5 µg/mL for the first, 0.5 µg/mL for the second.

Going from N=C(N)c1ccc(OCCCN2CCCN(CCCOc3ccc(C(=N)N)cc3)CC2)cc1 [Example 55, 4-{3-[4-(3-{4-[amino(imino)methyl]phenoxy}propyl)-1,4-diazepan-1-yl]propoxy}benzamidine Hydrochloride] to N=C(N)c1ccc(OCCCNCCCOc2ccc(C(=N)N)cc2)cc1 [Example 32, 4-{3-[(3-{4-[amino(imino)methyl]phenoxy}propyl)amino]propoxy}benzamidine Hydrochloride], the IC50 rises from 0.0156 µg/mL to 0.0313 µg/mL (2-fold).

In the case of N=C(N)c1ccc(OCCCCNCCNCCCCOc2ccc(C(=N)N)cc2)cc1 [Example 26, 4-[4-({2-[(4-{4-[amino(imino)methyl]phenoxy}butyl)amino]ethyl}amino)butoxy]benzamidine Hydrochloride], the IC50 was 0.0625 µg/mL.

Same assay, conditions: TIMM1623; Candida albicans TIMM 1623, SAAMF medium, 35° C., 36 hours, turbidity at 630 nm; read-out: IC50 (50% growth inhibitory concentration)

Going from N=C(N)c1ccc(OCCN2CCN(CCOc3ccc(C(=N)N)cc3)C(=O)C2=O)cc1 [Example 20, 4-{2-[4-(2-{4-[amino(imino)methyl]phenoxy}ethyl)-2,3-dioxo-1-piperazinyl]ethoxy}benzamidine Acetate] to N=C(N)c1ccc(OCCCN2CCN(CCOc3ccc(C(=N)N)cc3)C(=O)C2=O)cc1 [Example 22, 4-{3-[4-(2-{4-[amino(imino)methyl]phenoxy}ethyl)-2,3-dioxo-1-piperazinyl]propoxy}benzamidine Acetate], the IC50 rises from 0.125 µg/mL to 2 µg/mL (16-fold).

Going from N=C(N)c1ccc(OCCCN2CCN(CCCOc3ccc(C(=N)N)cc3)C(=O)C2=O)cc1 [Example 19, 4-{3-[4-(3-{4-[amino(imino)methyl]phenoxy}propyl)-2,3-dioxo-1-piperazinyl]propoxy}benzamidine acetate] to N=C(N)c1ccc(OCCCCN2CCN(CCCCOc3ccc(C(=N)N)cc3)C(=O)C2=O)cc1 [Example 21, 4-{4-[4-(4-{4-[amino(imino)methyl]phenoxy}butyl)-2,3-dioxo-1-piperazinyl]butoxy}benzamidine Acetate], the IC50 rises from 0.125 µg/mL to 0.25 µg/mL (2-fold).

N=C(N)c1ccc(OC/C=C/CN2CCN(CCCOc3ccc(C(=N)N)cc3)C(=O)C2=O)cc1 [Example 23, 4-({(E)-4-[4-(3-{4-[amino(imino)methyl]phenoxy}propyl)-2,3-dioxo-1-piperazinyl]-2-butenyl}oxy)benzamidine Acetate] was tested, and the IC50 was 2 µg/mL.

Test system: Candida albicans TIMM 1623
Assay: Therapeutic effect on mouse systemic Candida albicans infection, single subcutaneous dose, T/C survival
Type: in vivo, ICR male mice
Conditions: 0.1 mg/kg, administered once into the dorsal subcutis 2 hours after infection; observed until the 14th day
Experimental: Candida albicans TIMM 1623 was cultured at 30° C. overnight on a Sabouraud agar plate medium (Eiken Chemical Co., Ltd.), and the obtained culture was suspened in a sterilized physiological saline solution. Thus, a fungal solution for infection, having a concentration of 1×10^7 cells/ml, was prepared. This fungal solution was inoculated in a concentration of 0.2 ml (2×10^6 CFU/mouse) into the tail vein of each of five ICR male mice (4-week-old, body weight of 20±1 g). 2 hours later, 0.2 ml of a solution, which had been prepared by dissolving a test compound into a sterilized physiological saline solution and setting the concentration at 0.01 mg/ml, was administered once into the dorsal subcutis of each mouse. To mice of a control group, an equal amount of a sterilized physiological saline solution was administered.
Viability of the mice was observed until the 14th day after the infection, and the cumulative survival rate (T/C) of the treatment group to the control group was calculated, and the obtained value was used as an index of the life-prolonging effect.

With N=C(N)c1ccc(OCCCNCCNCCCOc2ccc(C(=N)N)cc2)cc1 [Example 24, 4-[3-({2-[(3-{4-[amino(imino)methyl]phenoxy}propyl)amino]ethyl}amino)propoxy]benzamidine hydrochloride] the “cumulative survival rate (T/C) of the treatment group to the control group” value was 180.

Test system: Candida albicans TIMM 1623
Assay: Therapeutic effect on mouse systemic Candida albicans infection, 7 subcutaneous doses, survival to day 28
Type: in vivo, ICR male mice
Conditions: 0.2 ml of 0.01 mg/ml solution subcutaneously once a day, 7 times in total; five mice per group; control group all died
Experimental: Candida albicans TIMM 1623 was cultured at 30° C. overnight on a Sabouraud agar plate medium (Eiken Chemical Co., Ltd.), and the cultured fumgus was suspended in a sterilized physiological saline solution. Thus, a fungal solution for infection, having a concentration of approximately 10^7 cells/ml, was prepared. 0.2 ml of this fungal solution was inoculated into the tail vein of each of five ICR male mice (4-week-old, body weight of 20±1 g). 2 hours after the infection, 0.2 ml of a solution, which had been prepared by dissolving a test compound into a sterilized physiological saline solution and adjusting the concentration at 0.01 mg/ml, was administered once into the dorsal subcutis of each mouse. From the following day, the same solution was administered thereto once a day for 6 days. Thus, the above solution was administered into the dorsal subcutis of the mice 7 times in total. To mice of a control group, an equal amount of a sterilized physiological saline solution was administered. Viability of the mice was observed until the 28th day after the infection.

For N=C(N)c1ccc(OCCCN2CCC(CCOc3ccc(C(=N)N)cc3)CC2)cc1 [Example 56, 4-{2-[1-(3-{4-[amino(imino)methyl]phenoxy}propyl)-4-piperidinyl]ethoxy}benzamidine Hydrochloride], the “survival ratio on the 28th day after the infection” value (shortened to “survival ratio on the 28th day”) was 4/5.
N=C(N)c1ccc(OCCCNCCNCCCOc2ccc(C(=N)N)cc2)cc1 [Example 24, 4-[3-({2-[(3-{4-[amino(imino)methyl]phenoxy}propyl)amino]ethyl}amino)propoxy]benzamidine hydrochloride] was tested, and the “survival ratio on the 28th day” value was 3/5.
For N=C(N)c1ccc(OCCCN2CCN(CCCOc3ccc(C(=N)N)cc3)CC2)cc1 [Example 40-2, 4-{3-[4-(3-{4-[amino(imino)methyl]phenoxy}propyl)-1-piperazinyl]propoxy}benzamidine hydrochloride], the “survival ratio on the 28th day” value was 4/5.
